Columns and labels:
[1] = system: SHR (Spontaneously hypertensive rat); assay: Systolic blood pressure of SHR by tail cuff method; assay type: in vivo; settings: 5 hours after administration, HCTZ 10 mg/kg, pratosartan 3 mg/kg, mean ± SD, in mmHg (unit assumed); for systolic blood pressure level, Day 1: before drug 220-222
Protocol: The systolic blood pressure level of male 20 weeks old SHR (Spontaneously hypertensive rat, SPF grade) was measured by tail cuff methods, and animals were randomized into 4 groups to balance the systolic blood pressure level among groups. 0.5% methylcellulose (MC) or drugs suspended in 0.5% MC were administered for 28 days, and systolic blood pressure levels after 5 hours of drug administration were measured at day 1, 7, 14 and 28. In table 3 , experimental groups, subject substances, doses, and the measured blood pressure levels (mean±standard deviation) were shown in table 4. Further, the subject substances were hydrochlorothiazide (HCTZ), pratosartan, and co-administration of HCTZ and pratosartan. The dose of HCTZ and pratosartan were 10 mg/kg and 3 mg/kg, respectively, and the dosage volume was 2 mL/kg in each case.

male 6 weeks old SD rats = assay: Uricosuric action estimated by delayed disappearance of blood phenol red; assay type: in vivo, rat; settings: for The enhance rate of uric acid excretion (%): phenol red 75 mg/kg i.v. 3 h later, serum 1 h after, control group = 100%, mean ± SD
Protocol: The uricosuric action is estimated by the delayed disappearance of blood phenol red level as a marker. Namely, male 6 weeks old SD rats were orally administered 0.5% methylcellulose (MC) or pratosartan (30 mg/kg or 100 mg/kg), and after three hours, phenol red solution (75 mg/kg) was intravenously adirninstered. One hour after phenol red administration, blood sample was collected from abdominal aorta under ether anesthesia, and the amount of phenol red in serum was determined. The amount of phenol red level in control group was taken as 100%, and the delayed rate of phenol red disappearance from blood in pratosartan treated group was estimated as the enhance rate of uric acid excretion (%). In table 1, experimental groups, subject substances, doses and the enhance rates of uric acid excretion (mean±standard deviation).

[2] = system: patients with mild or moderate essential hypertension; assay: Serum cholesterol level in patients with essential hypertension; assay type: in vivo, human
Protocol: 107 patients with mild or moderate essential hypertension were administered at dose of from 40 to 160 mg/day was administered every four weeks by degrees if the hypotensive action was insufficient. Serum cholesterol level before pratosartan administration was compared with that of the last day during pratosartan administration in each patient. Also, a part of patients were other co-administered pratosartan and conventionally known hypolipidemic drugs. General names of co-administered drugs, doses and number of patients were as follows. Namely, the list was pravastatin (10 mg/day, 3 patients), simvastatin (5 mg/day, 3 patients), cerivastatin (0.15 mg/day, 2 patients), atorvastatin (5 mg/day, 1 patients), fenofibrate (150 mg/day, 1 patient) and probucol (500 mg/day, 1 patient). The results when the patients were classified in the presence and absence of other co-administered drugs, were shown in table 6 and 7. The result in the presence of co-administered drugs was shown in table 6, and the result in the absence of co-administered drug was shown in […]. Further, data were shown mean±standard deviation.

[3] = system: patients with mild and moderate essential hypertension complicated with hyperuricemia; assay: Serum uric acid level in hypertensive patients complicated with hyperuricemia; assay type: in vivo, human; settings: 17 patients, 40 to 160 mg/day
Protocol: Studies were carried out intended for mild and moderate essential hypertension. 17 patients complicated with hyperuricemia were administered pratosartan, and serum uric acid levels (mg/dL) before drug administration and the last day during administration were determined. Further, the dose of from 40 to 160 mg/day was administered every four weeks by degrees if the hypotensive action was insufficient.

Structure (SMILES)	systolic blood pressure level, Day 1 [1]	systolic blood pressure level, Day 7 [1]	systolic blood pressure level, Day 14 [1]	systolic blood pressure level, Day 28 [1]	The enhance rate of uric acid excretion (%) (male 6 weeks old SD rats; 30 mg/kg oral)	The enhance rate of uric acid excretion (%) (male 6 weeks old SD rats; 100 mg/kg oral)	excretion of uric acid (male 6 weeks old SD rats; SD rats, 30 or 100 mg/kg oral)	Serum cholesterol level, the last day during administration ([2]; 12 patients with co-administered hypolipidemic drugs, before drug administration 250.25 ± 45.16)	Serum cholesterol level, difference ([2]; 12 patients with co-administered hypolipidemic drugs, paired t-test P < 0.05)	Serum cholesterol level, the last day during administration ([2]; 95 patients without co-administered drug, before drug administration 206.28 ± 39.81)	Serum cholesterol level, difference ([2]; 95 patients without co-administered drug, paired t-test P < 0.01)	Serum cholesterol level, the last day during administration ([2]; all 107 patients, 40 to 160 mg/day, before drug administration 211.2 ± 42.6)	Serum cholesterol level, difference ([2]; all 107 patients, 40 to 160 mg/day, paired t-test P < 0.0001)	Serum uric acid level, the last day during administration ([3]; before drug administration 8.0 ± 1.1)	Serum uric acid level, difference ([3]; last day during administration versus before drug administration)
NS(=O)(=O)c1cc2c(cc1Cl)NCNS2(=O)=O [HCTZ, hydrochlorothiazide, reference compound]	220 ± 2	219 ± 3	219 ± 4	214 ± 2											
CCCc1nc2c(n1Cc1ccc(-c3ccccc3-c3nnn[nH]3)cc1)C(=O)CCCC2 [pratosartan, 2-propyl-3-{[2′-(1H-tetrazole-5-yl)biphenyl-4-yl]methyl}-5,6,7,8-tetrahydrocyclohepta imidazole-4-(3H)-one]	206 ± 2	190 ± 3	190 ± 1	189 ± 1	105 ± 10%	172 ± 17%	enhance the excretion of uric acid	214.58 ± 37.31 mg/dL	-35.67 ± 41.49 mg/dL	197.66 ± 40.33 mg/dL	-8.62 ± 26.60 mg/dL	199.6 ± 40.2 mg/dL	-11.7 ± 29.7 mg/dL	7.4 ± 1.0 mg/dL	-0.7 ± 1.3 mg/dL

— patent publication US20070254932A1, “Drugs for Treating Duplication of Hypertension With Hyperuricemia and/or Hypercholesterolemia” (priority 2004, published 2007)
